In ChEMBL document CHEMBL4017531, “Design and Structure-Guided Development of Novel Inhibitors of the Xeroderma Pigmentosum Group A (XPA) Protein-DNA Interaction” (J Med Chem, 2017) one finds IC50, Activity and inhibition data, which are given here for eleven compounds.

Activity calls are given as the source filed them. The calls are words filed in the database; no cut-off is given here. Bounds are passed on as bounds.

The target in assay [1] is DNA repair protein complementing XP-A cells (Homo sapiens, UniProt P23025). Briefly: Inhibition of full length human XPA expressed in Sf9 cells assessed as reduction in interaction of XPA with 32P-labeled cisplatin-modified dsDNA by EMSA. A general note: In EMSA bound probe runs differently from free probe, usually more slowly.
Sequence of DNA repair protein complementing XP-A cells (P23025 whole entry): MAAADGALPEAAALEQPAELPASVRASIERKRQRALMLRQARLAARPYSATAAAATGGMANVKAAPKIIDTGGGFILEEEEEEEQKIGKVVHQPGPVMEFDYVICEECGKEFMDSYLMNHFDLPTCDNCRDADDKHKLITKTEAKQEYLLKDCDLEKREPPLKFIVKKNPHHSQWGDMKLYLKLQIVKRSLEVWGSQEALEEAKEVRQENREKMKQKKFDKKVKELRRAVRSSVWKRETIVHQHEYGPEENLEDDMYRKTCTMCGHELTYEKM
Another assay concerns Salmonidae. Briefly: Binding affinity to salmon sperm DNA assessed as DNA intercalation by SYBR-green dye based fluorescence assay.
For the next assay, the species on record is Homo sapiens. The conditions noted are these: 10 uM.

Description for Homo sapiens: Inhibition of RPA (unknown origin) at 10 uM by EMSA assay

For the compound `CC1=NN(c2cccc(C(=O)NCC3CC3)c2)C(=O)/C1=C\c1ccc(-c2ccc(Cl)c(C(=O)NCC3CC3)c2)o1`, the IC50 in assay [1] is over 50 µM.
Turning to `CC1=NN(c2cccc(C(=O)O)c2)C(=O)/C1=C\c1ccc(-c2ccc(Cl)c(C(=O)NCC3CC3)c2)o1`, in the assay on Salmonidae, the result was inactive.
On to `CC1=NN(c2ccc(C(=O)O)cc2)C(=O)/C1=C\c1ccc(-c2ccc(Cl)c(C(=O)NCc3ccc(F)cc3)c2)o1`, for which the outcome with Salmonidae was inactive. In addition, the inhibition result in the assay listed under Homo sapiens was “inactive”.
In the case of `CC1=NN(c2ccc(Cl)c(C(=O)O)c2)C(=O)/C1=C\c1ccc(-c2ccc(Cl)c(C(=O)OCc3ccccc3)c2)o1`, the result in the assay on Salmonidae was Active. Moreover, the inhibition result in the assay listed under Homo sapiens was “inactive”.
Turning to `CC1=NN(c2cccc(C(=O)O)c2)C(=O)/C1=C\c1ccc(-c2ccc(Cl)c(C(=O)NCc3ccc(F)cc3)c2)o1`, the result with Salmonidae was inactive.
With `CC1=NN(c2ccc(Cl)c(C(=O)O)c2)C(=O)/C1=C\c1ccc(-c2ccc(Cl)c(C(=O)OCc3ccccc3Cl)c2)o1`, in the assay on Salmonidae, the result was Active. For the same compound, the inhibition result in the assay listed under Homo sapiens was “inactive”.
For `CC1=NN(c2ccc(C(=O)O)cc2)C(=O)/C1=C\c1ccc(-c2ccc(C(=O)NCc3ccc(F)cc3)cc2)o1`, the outcome in the assay on Salmonidae was inactive.
As for `CC1=NN(c2cccc(C(=O)O)c2)C(=O)/C1=C\c1ccc(-c2ccc(C(=O)NCc3ccc(F)cc3)cc2)o1`, the IC50 in assay [1] is over 50 µM.
Same read-out and setting: then `CCOC(=O)c1cccc(N2N=C(C)/C(=C/c3ccc(-c4ccc(Cl)c(C(=O)NCc5ccc(F)cc5)c4)o3)C2=O)c1`, with over 25 µM; and `CC1=NN(c2cccc(C(=O)O)c2)C(=O)/C1=C\c1ccc(-c2ccc(C(=O)NCC3CC3)cc2)o1`, with over 50 µM.
Turning to `CC1=NN(c2ccc(C(=O)O)cc2)C(=O)/C1=C\c1ccc(-c2ccc(Cl)c(C(=O)NCC3CC3)c2)o1`, the outcome in the assay with Salmonidae was inactive. The inhibition result in the assay listed under Homo sapiens is “inactive”.

Broadly, the IC50 is the concentration that inhibits the measured activity by half.
